How the values were obtained:
[1] = system: NPM1 and GAPDH acetylation in KB cells; test: NPM1 and GAPDH acetylation in KB cells (anti-acetyl lysine immunoprecipitation, western blotting); format: cell-based
Method: (§1) KB cells were maintained in Dullbecco's modified Eagle medium (DMEM) with 10% fetal bovine serum (FBS) at 37° C. with a 5% CO2 atmosphere in a humidified incubator. For IFNγ and GSNO treatment, KB cells were incubated in the presence of IFNγ 10 ng ml^−1 for an additional 16 h and 24 h respectively. Immunofluorescent staining of cells for confocal microscopy was carried out as described previously^30. CTK7A treatment was done for 24 h followed by acid extraction of histone and immunoblotting as per standard protocol^31.
Whole cell extract were prepared using RIPA buffer as mentioned above. The pre-blocked protein-G sepharose-bound antibody (4 μg) was incubated with 500 μg whole cell lysate overnight at 4° C. After extensive washes, bead-bound protein were analysed by western blotting with indicated antibodies. For HDAC inhibitors treatment, 5 mM sodium butyrate, 5 mM nicotiamide and 100 ng ml^−1 TSA were added 10 h before cells were harvest^36.

Solubility test in water = format: physicochemical
Method: To a solution of curcumin in methanol (10 mg, 0.027 Mmol) […]. After incubation for 24 h, the solvent was evaporated in vacuum. The residue […] was purified with repeated recrystallization and filtration method using TLC (CHCl3/MeOH=4:1; Rf=0.5). This gave CTK7 as a dark orange powder (7.18 mg, 55%) which was analyzed by H^1 NMR, Melting point test, Solubility test and ESI-MS.
To a solution of CTK7 in methanol (50 mg, 0.1031 mmol), (10 ml) of Sodium ethoxide was added ([…], 0.1175 mmol) and the reaction mixture was stirred at room temperature for 90 minutes. The solvent was evaporated in vacuum and the residue was washed with hexane, diethyl ether and ethyl acetate. Product was confirmed through H^1 NMR, Solubility test, melting point.

[2] = system: Histone H3K14 acetylation in KB cells; test: H3K14 acetylation in GSNO treated KB cells (western blotting); format: cell-based; conditions: concentration dependent
Method: as §1, with “protocol^31. For whole cell extract preparation RIPA buffer (Tris-HCl 50 mM, pH 7.4 NP-40 1%, Na-deoxycholate 0.25%, NaCl 150 mM, EDTA 1 mM, Phenylmethylsulfonyl fluoride (PMSF), 1 mM Na3VO4, 1 mM NaF and protease inhibitor cocktail) was used.” for “protocol^31.”

[3] = system: NPM1 and GAPDH expression in KB cells; test: NPM1 and GAPDH expression in treated KB cells; format: cell-based; conditions: 24 h
Method: as §1, with “protocol^31. For whole cell extract preparation RIPA buffer (Tris-HCl 50 mM, pH 7.4 NP-40 1%, Na-deoxycholate 0.25%, NaCl 150 mM, EDTA 1 mM, Phenylmethylsulfonyl fluoride (PMSF), 1 mM Na3VO4, 1 mM NaF and protease inhibitor cocktail) was used.” for “protocol^31.”

human melanocytes = conditions: earlier report, cited from earlier work
PCAF = target: T1, PCAF (Homo sapiens, UniProt Q92831); test: HAT assay with recombinant PCAF; format: biochemical
T1 construct: Recombinant baculovirus expressing full-length FLAG-tagged CARM1,CBP and PCAF; FLAG; made in house; host or cells: baculovirus-infected Sf21 cells
T1 sequence (Q92831 whole entry, species assumed): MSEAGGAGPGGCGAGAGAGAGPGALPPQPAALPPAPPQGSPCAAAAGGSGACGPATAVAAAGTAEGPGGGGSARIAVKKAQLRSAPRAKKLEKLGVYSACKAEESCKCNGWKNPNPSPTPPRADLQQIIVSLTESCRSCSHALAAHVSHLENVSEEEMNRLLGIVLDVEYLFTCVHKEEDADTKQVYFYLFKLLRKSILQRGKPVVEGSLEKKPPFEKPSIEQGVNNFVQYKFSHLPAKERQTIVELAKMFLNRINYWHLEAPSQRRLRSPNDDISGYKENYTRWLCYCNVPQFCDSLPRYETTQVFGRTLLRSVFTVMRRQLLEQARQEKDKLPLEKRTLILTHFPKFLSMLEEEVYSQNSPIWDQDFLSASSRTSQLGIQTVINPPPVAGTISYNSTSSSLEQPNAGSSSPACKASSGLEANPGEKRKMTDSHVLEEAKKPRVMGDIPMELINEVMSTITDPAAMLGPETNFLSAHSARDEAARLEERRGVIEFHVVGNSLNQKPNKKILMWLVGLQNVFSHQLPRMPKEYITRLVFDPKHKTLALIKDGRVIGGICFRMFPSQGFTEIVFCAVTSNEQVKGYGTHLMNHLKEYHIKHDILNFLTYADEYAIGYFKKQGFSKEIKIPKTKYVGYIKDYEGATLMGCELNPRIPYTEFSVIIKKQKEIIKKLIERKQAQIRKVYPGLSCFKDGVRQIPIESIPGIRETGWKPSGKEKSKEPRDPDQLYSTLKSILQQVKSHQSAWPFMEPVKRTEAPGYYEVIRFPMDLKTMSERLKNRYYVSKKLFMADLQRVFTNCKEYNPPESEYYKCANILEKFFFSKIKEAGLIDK
Method: (§2) Recombinant baculovirus expressing full-length FLAG-tagged CARM1,CBP and PCAF were purified by immunoaffinity chromatography using M2-agarose beads followed by elution with FLAG peptide. Baculovirus-expressed full-length hexahistidine-tagged p300, and G9a were purified using Ni-NTA affinity chromatography as described previously^30.
(§3) HAT gel fluorography/autoradiography assays were performed as previously reported^30. Kinetic analysis of p300 HAT inhibition was performed as reported earlier^31 in the presence of (0, 30 and 50 μM) CTK7A. The obtained values were plotted as a lineweaver burk plot using Graphpad Prism software. For p300 Autoacetylation assay, reactions of p300 full length (80 ng) were carried out in HAT assay buffer at 30° C. for 10 minutes with or without the protein (NPM1) followed by addition of 1 μl of 4.7 Ci/mmol [^3H] acetyl CoA (NEN-PerkinElmer) and were further incubated for another 10 min in a 30 μl reaction. GAPDH was used as positive control. The radio-labeled acetylated p300 were processed by fluorography followed by autoradiography.

p300 = p300 (Homo sapiens, UniProt Q09472); test: HAT assay with recombinant p300; format: biochemical; parameters: hexahistidine; made in house; host or cells: baculovirus-infected Sf21 cells
p300, sequence (Q09472 whole entry, species assumed): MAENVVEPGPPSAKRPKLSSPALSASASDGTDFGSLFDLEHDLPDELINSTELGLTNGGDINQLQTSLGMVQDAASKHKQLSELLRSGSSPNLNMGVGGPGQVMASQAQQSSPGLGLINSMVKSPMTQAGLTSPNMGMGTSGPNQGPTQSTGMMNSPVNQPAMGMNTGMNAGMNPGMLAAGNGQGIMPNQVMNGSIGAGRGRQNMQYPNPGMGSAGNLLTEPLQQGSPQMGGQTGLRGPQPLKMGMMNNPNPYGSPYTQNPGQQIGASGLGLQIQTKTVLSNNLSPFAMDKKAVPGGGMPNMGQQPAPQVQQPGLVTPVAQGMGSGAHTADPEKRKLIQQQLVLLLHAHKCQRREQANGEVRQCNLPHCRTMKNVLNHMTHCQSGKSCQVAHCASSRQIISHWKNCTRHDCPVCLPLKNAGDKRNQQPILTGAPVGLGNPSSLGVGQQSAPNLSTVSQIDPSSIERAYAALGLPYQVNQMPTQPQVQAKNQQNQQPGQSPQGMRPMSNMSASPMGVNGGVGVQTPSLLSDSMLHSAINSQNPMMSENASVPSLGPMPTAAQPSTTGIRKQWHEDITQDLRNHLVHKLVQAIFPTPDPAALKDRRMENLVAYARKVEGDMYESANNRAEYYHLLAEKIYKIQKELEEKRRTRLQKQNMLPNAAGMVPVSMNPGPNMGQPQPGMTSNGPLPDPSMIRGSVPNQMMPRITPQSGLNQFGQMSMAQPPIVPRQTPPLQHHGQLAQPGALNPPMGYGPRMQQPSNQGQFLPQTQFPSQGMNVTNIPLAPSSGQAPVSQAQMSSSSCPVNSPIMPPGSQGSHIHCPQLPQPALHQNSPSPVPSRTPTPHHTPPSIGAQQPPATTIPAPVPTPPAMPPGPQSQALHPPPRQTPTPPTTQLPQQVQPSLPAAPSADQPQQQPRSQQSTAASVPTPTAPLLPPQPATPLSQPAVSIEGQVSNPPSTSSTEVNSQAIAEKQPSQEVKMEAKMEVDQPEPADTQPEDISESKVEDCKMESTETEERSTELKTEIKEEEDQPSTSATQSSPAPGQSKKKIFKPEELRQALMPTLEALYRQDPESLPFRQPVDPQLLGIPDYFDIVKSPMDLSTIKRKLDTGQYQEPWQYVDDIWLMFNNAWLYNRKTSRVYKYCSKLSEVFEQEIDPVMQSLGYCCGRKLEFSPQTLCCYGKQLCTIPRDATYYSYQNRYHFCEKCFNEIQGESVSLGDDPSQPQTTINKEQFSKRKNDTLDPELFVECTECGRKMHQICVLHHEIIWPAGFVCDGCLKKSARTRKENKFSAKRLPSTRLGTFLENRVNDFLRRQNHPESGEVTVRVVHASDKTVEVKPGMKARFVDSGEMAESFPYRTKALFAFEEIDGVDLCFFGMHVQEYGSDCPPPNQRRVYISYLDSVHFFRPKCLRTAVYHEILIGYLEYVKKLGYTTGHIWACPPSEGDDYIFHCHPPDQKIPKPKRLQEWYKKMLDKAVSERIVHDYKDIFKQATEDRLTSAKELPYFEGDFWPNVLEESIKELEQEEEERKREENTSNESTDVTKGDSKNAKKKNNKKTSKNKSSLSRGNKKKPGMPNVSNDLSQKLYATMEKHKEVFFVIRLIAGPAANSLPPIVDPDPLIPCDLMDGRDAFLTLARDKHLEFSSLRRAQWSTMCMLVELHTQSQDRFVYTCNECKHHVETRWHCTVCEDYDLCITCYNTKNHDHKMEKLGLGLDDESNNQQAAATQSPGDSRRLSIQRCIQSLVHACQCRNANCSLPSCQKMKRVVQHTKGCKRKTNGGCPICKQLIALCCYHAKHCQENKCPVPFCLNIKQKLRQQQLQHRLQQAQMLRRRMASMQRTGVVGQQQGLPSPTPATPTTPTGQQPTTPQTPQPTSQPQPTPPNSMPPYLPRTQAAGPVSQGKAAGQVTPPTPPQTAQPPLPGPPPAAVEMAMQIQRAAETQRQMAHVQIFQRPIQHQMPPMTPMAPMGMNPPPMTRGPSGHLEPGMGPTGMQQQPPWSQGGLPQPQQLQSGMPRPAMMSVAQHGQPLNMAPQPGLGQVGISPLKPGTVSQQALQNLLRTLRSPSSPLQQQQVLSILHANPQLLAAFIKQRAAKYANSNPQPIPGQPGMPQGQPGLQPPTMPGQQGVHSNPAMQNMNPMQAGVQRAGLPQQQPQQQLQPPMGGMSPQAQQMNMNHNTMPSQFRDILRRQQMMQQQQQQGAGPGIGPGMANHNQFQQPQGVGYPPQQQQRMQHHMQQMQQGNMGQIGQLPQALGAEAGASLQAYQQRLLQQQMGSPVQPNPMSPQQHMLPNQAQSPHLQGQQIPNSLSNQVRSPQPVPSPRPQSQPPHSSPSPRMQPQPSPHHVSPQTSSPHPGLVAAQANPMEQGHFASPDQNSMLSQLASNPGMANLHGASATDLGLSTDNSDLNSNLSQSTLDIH
Method: as §2, §3

full length p300 = target: T2, full length p300 (Homo sapiens, UniProt Q09472); test: p300 autoacetylation assay in vitro (3H-acetyl CoA, fluorography/autoradiography); format: biochemical; conditions: dose dependent; 3H-acetyl-CoA
T2 construct: hexahistidine; made in house; host or cells: baculovirus-infected Sf21 cells
T2 sequence (Q09472 whole entry, species assumed): as above
Method: as §3

[4] = system: GAPDH localisation in KB cells; test: GAPDH nuclear translocation in KB cells (immunofluorescence); format: cell-based; conditions: 10 ng ml−1, 16 h
Method: as §1, with “protocol^31. For whole cell extract preparation RIPA buffer (Tris-HCl 50 mM, pH 7.4 NP-40 1%, Na-deoxycholate 0.25%, NaCl 150 mM, EDTA 1 mM, Phenylmethylsulfonyl fluoride (PMSF), 1 mM Na3VO4, 1 mM NaF and protease inhibitor cocktail) was used.” for “protocol^31.”

CC(=N)NCc1cccc(CN)c1 [1400 W, N-(3-(Aminomethyl)benzyl)acetamidine]
effect on IFNγ-enhanced GAPDH and NPM1 acetylation ([1]; 100 μM): abolished or reduced

COc1cc(C=Cc2cc(C=Cc3ccc(O)c(OC)c3)n(-c3ccc(C(=O)O)cc3)n2)ccc1O [CTK7, Hydrazinobenzoylcurcumin]
solubility in water (Solubility test in water): Insoluble

N[C@@H](CCC(=O)N[C@@H](CSN=O)C(=O)NCC(=O)O)C(=O)O [GSNO, S-nitroso-glutathione]
level of H3K14 acetylation [2]: enhanced
expression of GAPDH [3]: enhanced in a concentration dependent manner
expression of NPM1 [3]: enhanced in a concentration dependent manner
acetylation of GAPDH ([1]; 200 μM GSNO, 24 h): gets acetylated
acetylation of NPM1 ([1]; 200 μM GSNO, 24 h): dramatically enhanced

CC(C)(COP(=O)(O)OP(=O)(O)OC[C@H]1O[C@@H](n2cnc3c(N)ncnc32)[C@H](O)[C@@H]1OP(=O)(O)O)[C@@H](O)C(=O)NCCC(=O)NCCSC(=O)[C@@H](N)CCCCN [Lysyl-CoA, lysyl-CoA]
proliferation of human melanocytes (human melanocytes): inhibited
senescence of human melanocytes (human melanocytes; with expression SA-β-gal): induced senescence-like growth arrest

COc1cc(/C=C/C(=O)CC(=O)/C=C/c2ccc(O)c(OC)c2)ccc1O [curcumin, reference compound]
inhibition of PCAF HAT activity (PCAF): inhibitory effect
inhibition of p300 HAT activity (p300): inhibitory effect

NPM1: Nucleophosmin, histone chaperone, multifunctional nucleolar protein
activation of autoacetylation of p300 (full length p300): activate

B1: IFNγ: interferon γ, a proinflamatory cytokine that activates iNOS to produce NO (protein, UniProt P01579 24-161, looked up)
Interferon gamma: QDPYVKEAENLKKYFNAGHSDVADNGTLFLGILKNWKEESDRKIMQSQIVSFYFKLFKNFKDDQSIQKSVETIKEDMNVKFFNSNKKKRDDFEKLTNYSVTDLNVQRKAIHELIQVMAELSPAAKTGKRKRSQMLFRG
translocation of GAPDH to nucleus [4]: induce the translocation
GAPDH and NPM1 acetylation ([1]; IFNγ 10 ng ml−1, 16 h, NO-dependent): enhanced

Source: patent US20120165384A1, “INHIBITION OF HISTONE ACETYLTRANSFERASES BY CTK7A AND METHODS THEREOF” (JAWAHARLAL NEHRU CENTRE FOR ADVANCED SCIENTIFIC RESEARCH, priority 2009, published 2012)
